Literature values in patent publication US6514536B2, “Drug preparations for treating sexual dysfunction” (L.A.M. Pharmaceutical Corporation, priority 1998, dated 2003).

How the values were obtained:
[1] = most abundant metabolite in plasma
[2] = test system: isolated corpus cavernosum and corpus spongiosum preparations; conditions: in vitro
erection = conditions: men who failed prior intracavernous therapy with papaverine and phentolamine
penile blood flow = conditions: duplex sonography
[3] = test system: isolated cavernosal artery segments; conditions: segments pre-contracted with noreginephrine or prostaglandin E2α
blood pressure = conditions: intravenous doses of 1 to 10 micrograms per kilogram of body weight

SMILES | biological activity [1] | smooth muscle relaxation [2] | share of men achieving adequate erections (erection) | increase in penile blood flow compared with papaverine (penile blood flow) | vasodilation [3] | effect on blood pressure (blood pressure)
CCCCCC(=O)CC[C@H]1[C@H](O)CC(=O)[C@@H]1CCCCCCC(=O)O [DKH-PGE1, 13,14-dihydro,15-keto PGE1] | biologically inactive |  |  |  |  | 
CCCCC[C@H](O)/C=C/[C@H]1[C@H](O)CC(=O)[C@@H]1CCCCCCC(=O)O [PGE1, prostaglandin E1] |  | dose-dependent smooth muscle relaxation | two-thirds | at least as effective as papaverine | vasodilation has been demonstrated | lower blood pressure
